The source of these data is PubChem BioAssay (NCI).

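Each compound was tested at five concentrations against cells in 96-well plates for 48 hours. GI50 marks 50% less growth. At the TGI there is no net growth.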

Common to all, as to assay: inhibition of tumour cell growth, NCI panel, 48 h
Experiment [1] has as its system BT-549 breast.
The subject of experiment [2] is SF-539 CNS.
The subject of experiment [3] is HT29 colon.
Experiment [4] relates to SF-295 CNS.
The test system of experiment [5] is HOP-62 NSCLC.
In experiment [6] the test system is NCI-H23 lung.
Experiment [7] deals with TK-10 renal.
The subject of experiment [8] is SF-268 CNS.
The test system of experiment [9] is RXF 393 renal.
The test system of experiment [10] is EKVX NSCLC.

As for `Cn1c([N+](=O)[O-])cnc1/C=C1\Oc2ccc(Cl)cc2C1=O`, the GI50 in experiment [1] is 1.2 µM; in experiment [2], 1.62 µM; in [3], 0.254 µM; in [4], 1.72 µM; in [5] it was 1.6 µM; in experiment [6], 0.652 µM. For the same compound, the GI50 was 1.04 µM in experiment [7] and 0.339 µM in experiment [8]. Moreover, the TGI in experiment [1] amounted to 4.99 µM; in experiment [2], 3.69 µM; in experiment [3], 0.757 µM; in experiment [4], 5.65 µM; in experiment [5], 4.78 µM; in experiment [6] it was 4.47 µM. For the same compound, the TGI in experiment [7] came to 2.77 µM; in experiment [8], 1.45 µM.
As to `O=C1/C(=C/c2ccc([N+](=O)[O-])s2)Oc2ccc(Cl)cc21`, the GI50 was 0.375 µM in experiment [9]; 0.248 µM in experiment [1]; 0.219 µM in experiment [2]; 2.21 µM in experiment [3]; 0.999 µM in experiment [4]; 0.775 µM in experiment [5]. Further, the GI50 was 0.592 µM in experiment [6], 0.372 µM in [7] and 0.405 µM in experiment [8]. Besides, the TGI in experiment [9] turned out to be 1.11 µM; in [1], 0.682 µM; in experiment [2], 0.583 µM; in [3] it was 5.49 µM; in experiment [4] it was 2.98 µM; in experiment [5], 3 µM. In addition, the values for the TGI in experiment [6], in experiment [7] and in [8] were 1.82 µM, 26.9 µM and 1.53 µM, respectively.
In the case of `COc1ccc(/C=C2\CN(Cc3cn(CCCNc4ccnc5cc(Cl)ccc45)nn3)C/C(=C\c3ccc(OC)cc3)C2=O)cc1`, the GI50 was 5.48 µM in experiment [9]; 3.78 µM in experiment [1]; 13.9 µM in [2]; 1.82 µM in experiment [3]; 14.2 µM in experiment [4]; 19.4 µM in experiment [5]. Also, the GI50 was 10.8 µM in experiment [6], 16.5 µM in experiment [7] and 3.45 µM in experiment [8]. Further, the TGI in experiment [9] is 18.9 µM; in [1], 12.9 µM; in [2], 26.8 µM; in experiment [3], 6.38 µM; in [4] it was 31.4 µM; in experiment [5], 35.5 µM. For the same compound, the TGI is 34.5 µM in experiment [6], 30.1 µM in [7] and 16.9 µM in experiment [8].
Take `Cc1cccc(NC(=O)c2sc3nc4c(cc3c2N)CCC4)c1C`: the GI50 in experiment [9] was 0.18 µM; in experiment [1], 0.443 µM; in experiment [2] it was 0.241 µM; in experiment [4], 0.245 µM; in [5], 0.428 µM; in [6], 0.749 µM. For the same compound, the GI50 in experiment [7] is 0.74 µM; in [8] it was 0.722 µM. Further, the TGI in [9] was 0.669 µM; in experiment [1], 23.5 µM; in experiment [2], 2.51 µM; in experiment [4], 11.1 µM; in [5], 17.4 µM; in experiment [6] it was over 100 µM. Besides, the TGI stood at 26.5 µM in [7] and 26 µM in [8].
On to `COc1c(C)cnc(Cn2cnc3c(Cl)nc(N)nc32)c1C`, for which the GI50 was 0.799 µM in [9]; 1.43 µM in experiment [1]; 0.605 µM in experiment [2]; 0.0654 µM in experiment [3]; 0.0948 µM in experiment [4]; 0.405 µM in experiment [5]. The GI50 in experiment [6] is 0.262 µM; in [7], 0.0884 µM; in experiment [8], 0.708 µM. For the same compound, the TGI in [9] was over 100 µM; in [1], over 100 µM; in experiment [2] it was over 100 µM; in [3], over 100 µM; in [5], over 100 µM; in experiment [6], 19.8 µM. In addition, the TGI in experiment [7] and in [8] was over 100 µM each time.
With `Cc1ccc(SCN2CCCCC2)cc1` (tested in a mixture with another compound), the TGI in experiment [9] turned out to be 22.3 µM; in experiment [10], 39.2 µM; in experiment [1] it was 15 µM; in experiment [3], 31.5 µM; in experiment [4] it was 33.1 µM; in [5] it was 37.7 µM. The TGI in experiment [6] stood at 22.9 µM; in [7] it was 45.3 µM; in experiment [8], 20.6 µM.
In the case of `Cn1c(N)cc(=O)nc1N`, the TGI in experiment [10], in experiment [1], in experiment [2], in experiment [3], in experiment [4] and in experiment [5] was over 100 µM throughout. Moreover, the TGI in experiment [6], in experiment [7] and in [8] was over 100 µM throughout.
For the compound `CCCCCCn1c(=N)n(CC(O)COc2cccc(C)c2)c2ccccc21` (stereo not drawn), the GI50 in [1] is 1.8 µM; in experiment [2] it was 2.2 µM; in [3] it was 1.73 µM; in experiment [4] it was 1.78 µM; in experiment [5] it was 2.14 µM; in [6], 2.89 µM. Besides, the results for the GI50 in experiment [7] and in experiment [8] were 3.71 µM and 3.9 µM, respectively. The TGI stood at 3.51 µM in [1]; 4.43 µM in experiment [2]; 3.59 µM in experiment [3]; 3.78 µM in experiment [4]; 3.88 µM in experiment [5]; 11.5 µM in experiment [6]. Also, the values for the TGI in experiment [7] and in [8] were 12.8 µM and 13.9 µM, respectively.
Consider `Nc1cc2[nH]c(=O)c3cc(Cl)ccc3c2cc1Cl`, for which the TGI in experiment [10] is over 100 µM; in experiment [1], over 100 µM; in experiment [2], 25.8 µM; in experiment [3] it was over 100 µM; in [4], 44.2 µM; in experiment [5], 63.1 µM. Further, the TGI in experiment [6] is 72.5 µM; in experiment [7] it was 33.7 µM; in experiment [8], 45.4 µM.
